Measurements as given in US11603377B2, “MTORC1 modulators and uses thereof” (Aeovian Pharmaceuticals, Inc., priority 2020, dated 2023).

Assays:
[1] = molecular target: FKBP12 / FRB ternary complex (Homo sapiens (Human), UniProt P42345+P62942); assay: SPR assay to characterize ternary complex formation with FKBP12 (FRB binding to rapalog-saturated FKBP12); conditions: FRB dilutions with 100 nM rapalog on immobilized FKBP12
Protocol: Example 30: SPR Assay to Characterize Ternary Complex Formation with FKBP12
(§1) Biotinylated avi-FKBP12 was immobilized on a streptavidin chip (Cytiva Series S SA) using a Biacore 8K or 8 k+ (Cytiva). To achieve an immobilization level of 100 RU, 0.3 μg/ml biotinylated avi-FKBP12 were injected for 80 sec at a flow rate of 10 μl/min. Serial dilution of FRB was prepared (12 concentrations, 3-fold dilutions, 0.00011-20 μM) and supplemented with 100 nM of rapalog. A-B-A injection mode was used to ensure saturation immobilized FKBP12 with respective rapalog. 100 nM solution of the respective rapalog was injected before FRB injection for 120 sec and during dissociation for 420 sec. The FRB dilutions were then injected 120 seconds contact time with increasing concentrations. […] 50 mM HEPES pH 7.5, 150 mM NaCl, 2 mM MgCl2, 1 mM DTT, 0.05% Tween-20, 1% DMSO was used as running buffer at a flow rate of 30 μl/min. The multi-cycle kinetics data were fit to a 1:1 binding model to measure the association rate ka (1/Ms), the dissociation rate kd (1/s) and the affinity Kd (M). In case of fast association and dissociation, steady state affinity analysis following the law of mass action was used to determine the affinity Kd (M).

[2] = molecular target: FKBP51 / FRB ternary complex (Homo sapiens (Human), UniProt P42345+Q13451); assay: SPR assay to characterize ternary complex formation with FKBP51 (FRB binding to rapalog-saturated FKBP51); conditions: FRB dilutions with 100 nM rapalog on immobilized FKBP51
Protocol: Example 31: SPR Assay to Characterize Ternary Complex Formation with FKBP51
as §1, with “Biotinylated avi-FKBP51” for “Biotinylated avi-FKBP12”, “of 200” for “of 100”, “RU, 0.6” for “RU, 0.3”, “biotinylated avi-FKBP51” for “biotinylated avi-FKBP12”, “for 150” for “for 80”

FKBP51 = FKBP51 (Homo sapiens (Human), UniProt Q13451); assay: SPR assay to determine binding affinity to FKBP51 (direct binding); conditions: immobilized biotinylated avi-FKBP51
Sequence of FKBP51 (Q13451 whole entry): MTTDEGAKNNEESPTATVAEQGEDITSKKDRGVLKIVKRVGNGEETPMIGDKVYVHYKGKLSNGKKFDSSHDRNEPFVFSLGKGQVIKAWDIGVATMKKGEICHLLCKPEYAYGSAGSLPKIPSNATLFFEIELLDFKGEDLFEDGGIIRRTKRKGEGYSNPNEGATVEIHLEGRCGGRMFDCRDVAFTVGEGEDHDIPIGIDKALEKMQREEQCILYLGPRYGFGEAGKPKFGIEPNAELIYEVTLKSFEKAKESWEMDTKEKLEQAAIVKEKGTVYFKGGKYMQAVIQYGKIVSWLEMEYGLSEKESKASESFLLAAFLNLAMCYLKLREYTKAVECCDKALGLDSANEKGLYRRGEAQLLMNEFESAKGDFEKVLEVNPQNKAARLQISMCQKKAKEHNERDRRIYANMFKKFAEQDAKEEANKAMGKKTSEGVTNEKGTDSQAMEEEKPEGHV
Protocol: Example 29: SPR Assay to Determine Binding Affinity to FKBP51
Biotinylated avi-FKBP51 was immobilized on a streptavidin chip (Cytiva Series S SA) using a Biacore 8K or 8 k+ (Cytiva). To achieve an immobilization level of 2000 RU, 3 μg/ml biotinylated avi-FKBP51 were injected for 360 sec at a flow rate of 10 μl/min. Rapalogs were diluted in DMSO to 100× working concentration. Each Rapalog was 100-fold diluted in 50 mM HEPES pH 7.5, 150 mM NaCl, 2 mM MgCl2, 1 mM DTT, 0.05% Tween-20 and a serial dilution prepared (8 concentrations, 3-fold dilutions, 0.5-1000 nM). […] The compound dilutions were then injected at 100 uL/min for 120 seconds contact time and with 3600 seconds dissociation time with increasing concentrations. 50 mM HEPES pH 7.5, 150 mM NaCl, 2 mM MgCl2, 1 mM DTT, 0.05% Tween-20, 1% DMSO was used as running buffer. Multi-cycle kinetics data were fit to a 1:1 binding model to measure the association rate ka (1/Ms), the dissociation rate kd (1/s) and the affinity Kd (M).

mTORC2 = mTORC2 (Homo sapiens (Human), UniProt P42345+P62942); assay: mTORC2 inhibition, AlphaLISA of Phospho-AKT (pAKT pS473) in PC3 cells; format: cell-based
Protocol: Example 32: mTORC1 Inhibition, mTORC2 Inhibition, Cell Lysis, AlphaLISA Experiments, and Data Analysis
mTORC2 inhibition was determined via analysis of phosphorylation level of Phospho-AKT (pAKT pS473) with the corresponding AlphaLISA kit (PerkinElmer, Alpha SF Ultra™ Multiplex p-AKT1/2/3(Ser473)/Total AKT1). PC3 cells were plated on 96 well plates in assay medium (DMEM: Ham's F12, basic (CLS Cell Lines Service GmbH, Cat #820400a), supplemented with additional 10% FBS at 1.20E+06 cells/mL and incubated over-night at 37° C., 5% CO2. On the following day, cells were treated with assay medium (10% FBS) containing increasing compound concentrations (12 points at 3-fold dilutions) and incubated for 6 hours at 37° C., 5% CO2. Thereafter, medium was aspirated and cells were rinsed with PBS. In the following, cells were treated with compound dilutions in starvation medium (DMEM: Ham's F12, basic; without FBS) for further 18 h at 37° C., 5% CO2. Then, immediately prior to cell lysis, cells were treated with 12% FBS for 15 min.
After performing experiments according to mTORC1 and mTORC2 protocols, cells were harvested in lysis buffer supplied with the AlphaLISA kits, additionally enriched with Roche cOmplete™ Protease Inhibitor Cocktail (Cat #CO-RO). Thus, cells were lysed using 50 μL of the lysis buffer and incubated for 60 min at 4° C. while shaking. After centrifugation at 4000 rpm for 5 min, experiments were performed according to the AlphaLISA manufacturer's protocol.
Ten microliters of cell lysates were mixed with the acceptor mix. After incubation for 2 h at room temperature, the donor mix was added. After additional incubation at room temperature for 2 hours, AlphaLISA signal was read on PHERAstar® FSX (BMG Labtech) with AlphaPLEX module.
EC50 values were calculated by ExcelFit standard algorithm.

FKBP12 = FKBP12 (Homo sapiens (Human), UniProt P62942); assay: SPR assay to determine binding affinity to FKBP12 (direct binding); conditions: immobilized biotinylated avi-FKBP12
Sequence of FKBP12 (P62942 whole entry): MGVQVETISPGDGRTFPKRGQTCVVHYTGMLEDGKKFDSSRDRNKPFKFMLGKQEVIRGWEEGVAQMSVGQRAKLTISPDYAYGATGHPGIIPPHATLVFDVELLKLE
Protocol: SPR Assay to Determine Binding Affinity to FKBP12.
Biotinylated avi-FKBP12 was immobilized on a streptavidin chip (Cytiva Series S SA) using a Biacore 8K or 8 k+ (Cytiva). To achieve an immobilization level of 1000 RU, 2 μg/ml biotinylated avi-FKBP12 were injected for 100 sec at a flow rate of 10 μl/min. Rapalogs were diluted in DMSO to 100× working concentration. Each Rapalog was 100-fold diluted in 50 mM HEPES pH 7.5, 150 mM NaCl, 2 mM MgCl2, 1 mM DTT, 0.05% Tween-20 and a serial dilution prepared (9 concentrations, 3-fold dilutions, 0.08-500 nM). […] The compound dilutions were then injected at 100 uL/min for 120 seconds contact time in sequence with increasing concentrations. Dissociation was monitored for 3600 seconds. 50 mM HEPES pH 7.5, 150 mM NaCl, 2 mM MgCl2, 1 mM DTT, 0.05% Tween-20, 1% DMSO was used as running buffer. The single-cycle kinetics data were fit to a 1:1 binding model to measure the association rate ka (1/Ms), the dissociation rate kd (1/s) and the affinity Kd (M).

mTORC1 = mTORC1 (Homo sapiens (Human), UniProt P42345+P62942); assay: mTORC1 inhibition, AlphaLISA of Phospho-p70 S6 kinase (p70S6K pT389) in PC-3 cells; format: cell-based; conditions: inhibition of p70S6K pT389 levels

Row | SMILES | Kd [1] | Kd [2] | Kd (FKBP51) | mTORC2 % inhibition at 1 uM (mTORC2) | Kd (FKBP12) | IC50 (mTORC1) | inhibition at 1 µM (mTORC2; PC-3, read-out: mTORC2 % inhibition at 1 uM)
1 | COC1CC(CC(C)C2CC(=O)C(C)C=C(C)C(O)C(OC)C(=O)C(C)CC(C)C=CC=CC=C(C)C(NS(=O)(=O)C3CC3)CC3CCC(C)C(O)(O3)C(=O)C(=O)N3CCCCC3C(=O)O2)CCC1O (mixture of isomers) [Compound 1] | 300 to 800 nM | < 300 nM | 10 to 100 nM | A (A ≤20% inhibition at 1 micro Molar (uM)) | > 1 nM | 0.1 to 0.8 nM | –
2 | COCCOCCS(=O)(=O)NC1CC2CCC(C)C(O)(O2)C(=O)C(=O)N2CCCCC2C(=O)OC(C(C)CC2CCC(OCCCS(C)(=O)=O)C(OC)C2)CC(=O)C(C)C=C(C)C(O)C(OC)C(=O)C(C)CC(C)C=CC=CC=C1C (mixture of isomers) [Compound 4] | < 300 nM | 300 to 800 nM | 10 to 100 nM | A (A ≤20% inhibition at 1 micro Molar (uM)) | < 0.3 nM | < 0.1 nM | –
3 | COCCOCCS(=O)(=O)NC1CC2CCC(C)C(O)(O2)C(=O)C(=O)N2CCCCC2C(=O)OC(C(C)CC2CCC(OCCO)C(OC)C2)CC(=O)C(C)C=C(C)C(O)C(OC)C(=O)C(C)CC(C)C=CC=CC=C1C (mixture of isomers) [Compound 7] | < 300 nM | 300 to 800 nM | 10 to 100 nM | B (B>20% and less than 40% inhibition at 1 uM) | < 0.3 nM | 0.1 to 0.8 nM | –
4 | COCCS(=O)(=O)NC1CC2CCC(C)C(O)(O2)C(=O)C(=O)N2CCCCC2C(=O)OC(C(C)CC2CCC(OCCCO)C(OC)C2)CC(=O)C(C)C=C(C)C(O)C(OC)C(=O)C(C)CC(C)C=CC=CC=C1C (mixture of isomers) [Compound 13] | 300 to 800 nM | > 800 nM | 10 to 100 nM | A (A ≤20% inhibition at 1 micro Molar (uM)) | < 0.3 nM | 0.1 to 0.8 nM | –
5 | CCOC(=O)COC1CCC(CC(C)C2CC(=O)C(C)C=C(C)C(O)C(OC)C(=O)C(C)CC(C)C=CC=CC=C(C)C(NS(=O)(=O)CCOC)CC3CCC(C)C(O)(O3)C(=O)C(=O)N3CCCCC3C(=O)O2)CC1OC (mixture of isomers) [Compound 14] | > 800 nM | > 800 nM | 10 to 100 nM | A (A ≤20% inhibition at 1 micro Molar (uM)) | 0.3 to 1 nM | > 0.8 nM | –
6 | COC1CC(CC(C)C2CC(=O)C(C)C=C(C)C(O)C(OC)C(=O)C(C)CC(C)C=CC=CC=C(C)C(NS(=O)(=O)C3CC3)CC3CCC(C)C(O)(O3)C(=O)C(=O)N3CCCCC3C(=O)O2)CCC1OCCCO (mixture of isomers) [Compound 15] | < 300 nM | > 800 nM | 10 to 100 nM | A (A ≤20% inhibition at 1 micro Molar (uM)) | < 0.3 nM | 0.1 to 0.8 nM | –
7 | COC1CC(CC(C)C2CC(=O)C(C)C=C(C)C(O)C(OC)C(=O)C(C)CC(C)C=CC=CC=C(C)C(OCC3CCC3)CC3CCC(C)C(O)(O3)C(=O)C(=O)N3CCCCC3C(=O)O2)CCC1O (stereo not drawn) [Compound 37] | 300 to 800 nM | > 800 nM | – | B (B>20% and less than 40% inhibition at 1 uM) | > 1 nM | > 0.8 nM | –
8 | CO[C@@H]1C[C@H](C[C@@H](C)[C@@H]2CC(=O)[C@H](C)/C=C(\C)[C@@H](O)[C@@H](OC)C(=O)[C@H](C)C[C@H](C)/C=C/C=C/C=C(\C)[C@H](OCC3CCC3)C[C@@H]3CC[C@@H](C)[C@@](O)(O3)C(=O)C(=O)N3CCCC[C@H]3C(=O)O2)CC[C@H]1OCCCS(C)(=O)=O [Compound 63] | 300 to 800 nM | > 800 nM | – | C (C≥40% and less than 60% inhibition at 1 uM) | > 1 nM | > 0.8 nM | –
9 | CO[C@H]1C[C@@H]2CC[C@@H](C)[C@@](O)(O2)C(=O)C(=O)N2CCCC[C@H]2C(=O)O[C@H]([C@H](C)C[C@@H]2CC[C@@H](O)[C@H](OC)C2)CC(=O)[C@H](C)/C=C(\C)[C@@H](O)[C@@H](OC)C(=O)[C@H](C)C[C@H](C)/C=C/C=C/C=C/1C [Rapamycin, reference compound] | – | – | < 10 nM | – | – | – | ≥ 60%
